Measured values as given in paper PMC12124364 (Science Advances, 2025).
Each block holds one compound with its values, some of them ahead of it.

Legend:
[1] = system: HIV-1 5i3res strain; assay: Anti-HIV activity against selected 5i3res strain in MT-4 cells; type: cell-based; details: for EC50: Human immunodeficiency virus 1, MT4, read-out: EC50 5i3res strain
[2] = system: HIV-1 p1579 (E138G/H221Y/F227L/M230L); assay: Anti-HIV-1 activity against NNRTI-resistant strain p1579 in TZM-bl cells; type: cell-based; details: Human immunodeficiency virus 1, TZM-bl, read-out: EC50 p1579
[3] = system: HIV-1 5e2res strain; assay: Anti-HIV activity against selected 5e2res strain in MT-4 cells; type: cell-based; details: for EC50: Human immunodeficiency virus 1, MT4, read-out: EC50 5e2res strain; for RF (resistance fold), 5e2res strain: EC50(mutant strain)/EC50(IIIB strain)
[4] = system: HIV-1 GH9 (K101P/K103N/V108I); assay: Anti-HIV-1 activity against triple-mutant strain GH9 in TZM-bl cells; type: cell-based; details: Human immunodeficiency virus 1, TZM-bl, read-out: EC50 GH9
[5] = system: HIV-1 K101P mutation; details: cited from earlier work
[6] = system: HIV-1 GH9 (K101P/K103N/V108I); details: cited from earlier work
[7] = system: HIV-1 p5735 (K101E/Y181V); assay: Anti-HIV-1 activity against NNRTI-resistant strain p5735 in TZM-bl cells; type: cell-based; details: Human immunodeficiency virus 1, TZM-bl, read-out: EC50 p5735
[8] = system: HIV-1 p5375 (A98G/K101E/E138K/Y181C); assay: Anti-HIV-1 activity against NNRTI-resistant strain p5375 in TZM-bl cells; type: cell-based; details: Human immunodeficiency virus 1, TZM-bl, read-out: EC50 p5375
[9] = Cytotoxicity in TZM-bl cells; type: cell-based; details: human
[10] = system: HIV-1 WT strain (IIIB); assay: Anti-HIV activity against HIV-1 IIIB in MT-4 cells; type: cell-based; details: Human immunodeficiency virus 1, IIIB, MT4, read-out: EC50 IIIB strain
[11] = system: HIV-1 K103N mutation; details: cited from earlier work
[12] = system: HIV-1 p1833 (A98G/K101E/Y181C/G190A); assay: Anti-HIV-1 activity against NNRTI-resistant strain p1833 in TZM-bl cells; type: cell-based; details: Human immunodeficiency virus 1, TZM-bl, read-out: EC50 p1833
[13] = system: CYP1A2, CYP2C9, CYP2C19, CYP2D6 (range over isozymes); assay: Cytochrome P450 inhibition assay, ranges over isozymes; type: in vitro ADME; details: human, human liver microsomes

Structure (SMILES): Cc1cc(/C=C/C#N)cc(C)c1Nc1ccnc(Nc2ccc(C#N)cc2)n1 [RPV, rilpivirine]
EC50 [1]: 74.6 nM
EC50 [2]: 1.26 ± 0.38 nM
EC50 [3]: 16.6 nM
EC50 [4]: 1710 ± 339 nM
reduction in efficacy by K101P mutation alone [5]: up to 243 fold
resistance conferred by triple-mutant strain GH9 [6]: > 162 fold
EC50 [7]: 151 ± 32 nM
EC50 [8]: 1.07 ± 0.3 nM
CC50 at 4 days [9]: > 54500 nM

Structure (SMILES): Cc1cn([C@H]2C[C@H](N=[N+]=[N-])[C@@H](CO)O2)c(=O)[nH]c1=O [AZT, zidovudine]
RF (resistance fold), 5i3res strain ([1]; EC50(mutant strain)/EC50(IIIB strain)): 1.2
EC50 [1]: 48.9 nM
RF (resistance fold), 5e2res strain [3]: 1.3
EC50 [3]: 51.9 nM
EC50 [10]: 40.9 nM

Structure (SMILES): O=C1Nc2ccc(Cl)cc2[C@@](C#CC2CC2)(C(F)(F)F)O1 [EFV, efavirenz]
reduction in efficacy by K101P mutation alone [5]: > 50 fold
resistance conferred by triple-mutant strain GH9 [6]: up to 12,931 fold
reduction in susceptibility by K103N mutation [11]: about 20 fold

Structure (SMILES): Nc1ccn([C@H]2CC[C@@H](CO)O2)c(=O)n1 [ddC, zalcitabine]
RF (resistance fold), 5e2res strain [3]: 0.8
EC50 [3]: 690 nM
EC50 [10]: 890 nM

Structure (SMILES): Cc1ccnc2c1NC(=O)c1cccnc1N2C1CC1 [NVP, nevirapine]
EC50 5i3res strain ([1]; MT-4 cells): completely inactive
EC50 5e2res strain ([3]; MT-4 cells): completely inactive
reduction in susceptibility by K103N mutation [11]: ~50 fold

Structure (SMILES): Cc1cc(C#N)cc(C)c1Oc1nc(Nc2ccc(C#N)cc2)nc(N)c1Br [ETR, etravirine]
EC50 [12]: 11.1 ± 2.76 nM
EC50 [2]: 74.9 ± 18.9 nM
EC50 [4]: 104 ± 38.2 nM
reduction in efficacy by K101P mutation alone [5]: about five-fold
IC50 at 10 min [13]: 277 to 12000 nM
EC50 [7]: 14.3 ± 5.07 nM
EC50 [8]: 37.6 ± 8.06 nM

EC50 [1]: 8930 nM
EC50 [10]: 19700 nM
Structure (SMILES): O=c1[nH]cnc2c1ncn2[C@H]1CC[C@@H](CO)O1 [ddI, didanosine]
